According to US20060116325A1, “Methods and compositions for inhibiting hiv-coreceptor interactions” (priority 2001, published 2006):

What was measured:
CXCR4 [1] = biological target: T1, CXCR4 (Homo sapiens, UniProt P61073); assay: Competition with 125I-SDF-1α binding to CEMx174 cells; set-up: host or cells: CEMx174 (174xCEM); settings: room temperature, 0.1% sodium azide, FIG. 7B, 7C
Description: FIGS. 7A through 7C depicts the inhibition of chemokine receptor ligand binding by peptide pre-treatment. FIG. 7A. Effect of pre-treatment with peptides 15K and 15D on the binding of MIP-1β to SupT1/CCR5 cells; FIG. 7B. Effect of pre-treatment with peptides 15K and 1SD on the binding of SDF-1α to CEMx174 cells; and FIG. 7C. Effect of pre-treatment with 15K and control peptide 15GIG on the binding of SDF-1α to CEmx174 cells. Binding studies were performed as described in Materials and Methods.
Binding assays were performed with HEK-CCR5 or HEK CXCR4 in triplicate by adding unlabeled competitor (anti-coreceptor binding peptide or control chemokine) and radiolabeled chemokine, 0.2 ng/ml (^125I-MIP-1β or SDF-1α, specific activity 2000 Ci/mmol, NEN Life Science Products) to a cell suspension (4×10^5 cells in 200 μl) in RPMI 1640 supplemented with 1% bovine serum albumin and 25 mM HEPES pH 8.0 (binding medium). Cells were then incubated at 22° C. for 40 min with continuous rotation. After incubation cells were transferred to the tubes containing 800 μl of 10% sucrose in PBS and harvested by centrifugation. The supernatant was aspirated and the cell-associated radioactivity was measured using a 1272 Wallac gamma counter. Binding assays were performed with the 174xCEM and Sup-T1 cells expressing CCR5 in duplicates by adding unlabeled competitor (peptide or control chemokine) and radiolabeled chemokine, 0.2 ng/ml (^125I-MIP-1β or ^125I-SDF-1α, specific activity 2000 Ci/mmol, NEN life Science Products) to 300 μl cell suspension (4×10^6 cells/ml) in RPMI 1640 supplemented with 1% bovine serum albumin, 0.1% sodium azide and 25 mM HEPES pH 8.0 (binding medium). Cells were then incubated at 22° C. for 30 min with continuous rotation. After incubation cells were transferred to the tubes containing 800 μl of 10% sucrose in PBS and harvested by centrifugation, the supematant was aspirated and the cell-associated radioactivity was measured using a 1272 Wallac gamma counter. The data were analyzed by nonlinear regression using the computer program GraphPad Prizm 3.0. […]

HIV-1IIIB = HIV-1IIIB infection of PBMC, p24 ELISA; type: cell-based; settings: for concentration at which significant inhibition of HIV-1 infection was detected (as low as): HIV-1IIIB, PBMC; for inhibition of T cell-tropic HIV-1 infection of PBMCs (p24): peptide 1 hr before HIV-1IIIB, p24 after 48 hr, FIG. 4
Description: Peripheral blood mononuclear cells were treated with designated concentrations of peptide for a period of 1 hr prior to addition of HIV-1IIIB. After 2 hr, cells were washed, and viral replication was determined after 48 hr by analysis of p24 levels. Results are representative of 4 independent experiments.
PBMCs were obtained from whole blood of normal donors and isolated by Ficoll-Paque Plus (Pharmacia Biotech, Piscataway, N.J.) density gradient centrifugation, and plated at a cell density of 2×10^6 cells/ml. Monocyte-derived macrophages (MDM) were generated from adherent human peripheral blood mononuclear cells by culture for 7 days with M-CSF (100 ng/ml). Cultures were maintained in RPMI-1640 medium (Life Technologies, Rockville, Md.) supplemented with 10% heat-inactivated endotoxin-free FCS (Hyclone, Logan, Utah), 10 μg/ml gentamicin, and 1 mM glutamine. Cells were treated with designated concentrations of the exemplary peptides 15K or 15D, and after 1 hr cells were infected with HIV-1IIIB (T cell tropic) or HIV-1JRFL (monocyte tropic) at an multiplicity of infection (MOI) of 0.1. After 2 hr, cells were washed, and cultured for additional 48-72 hr, followed by analysis of HIV replication as determined by quantification of accumulated p24 in the supernatant. The production of p24 was determined by conventional sandwich ELISA, using ELISA plates pre-coated with capture anti-p24 antibodies provided by the AIDS Vaccine Program (SAIC Frederick, NCI-FCRDC, Frederick, Md.). The captured p24 antigen was detected using rabbit anti-HIV-1 anti-p24 antibody, and a secondary goat anti-rabbit IgG (peroxidase-labeled) antibody. The captured p24 protein was detected using a 3,3′,5,5′-tetramethylbenzidine and hydrogen peroxide detection system (KPL Laboratories, Gaithersburg, Md.). The reaction was read spectrophotometrically at 450 nm. No cytotoxicity was detectable following treatment of PBMC with the peptides even at a concentration of 100 μg/ml.
In view of the foregoing binding inhibition studies, and considering the homology between the 15K and 15D peptides and the CXCR4 ligand SDF-1α, it was further undertaken to determine the capacity of the synthetic peptides to inhibit CXCR4 co-receptor function. In particular, experiments were carried out to assess the ability of 15K or 15D to alter the infection of PBMCs with the T cell-tropic […] strain. […] Significant inhibition of HIV-1 infection was detected with concentrations of peptides as low as 10 ng/ml.

CXCR4 [2] = biological target: T1, CXCR4; assay: Competition with radiolabeled SDF-1α binding to HEK-CXCR4 cells; set-up: host or cells: CEMx174 (174xCEM); settings: high concentrations (e.g., 100 μM) of peptide required, FIG. 1
Description: (§1) Binding assays were performed with HEK-CCR5 or HEK CXCR4 in triplicate by adding unlabeled competitor (anti-coreceptor binding peptide or control chemokine) and radiolabeled chemokine, 0.2 ng/ml (^125I-MIP-1β or SDF-1α, specific activity 2000 Ci/mmol, NEN Life Science Products) to a cell suspension (4×10^5 cells in 200 μl) in RPMI 1640 supplemented with 1% bovine serum albumin and 25 mM HEPES pH 8.0 (binding medium). Cells were then incubated at 22° C. for 40 min with continuous rotation. After incubation cells were transferred to the tubes containing 800 μl of 10% sucrose in PBS and harvested by centrifugation. The supernatant was aspirated and the cell-associated radioactivity was measured using a 1272 Wallac gamma counter. […] After incubation cells were transferred to the tubes containing 800 μl of 10% sucrose in PBS and harvested by centrifugation, the supematant was aspirated and the cell-associated radioactivity was measured using a 1272 Wallac gamma counter. The data were analyzed by nonlinear regression using the computer program GraphPad Prizm 3.0.
(§2) Considering that the 15K and 15D peptides were designed in part based on their structural similarity to corresponding chemokine fragments, the binding activity of these peptides for CCR5 and/or CXCR4 receptors, and corresponding anti-coreceptor binding activity against chemokines, was assessed.

CCR5 = CCR5 (Homo sapiens, UniProt P51681); assay: Competition with 125I-MIP-1β binding to HEK-CCR5 cells; set-up: expressed in transfected cells; host or cells: HEK-293; settings: high concentrations (e.g., 100 μM) of peptide required, FIG. 1
CCR5, sequence (P51681 whole entry): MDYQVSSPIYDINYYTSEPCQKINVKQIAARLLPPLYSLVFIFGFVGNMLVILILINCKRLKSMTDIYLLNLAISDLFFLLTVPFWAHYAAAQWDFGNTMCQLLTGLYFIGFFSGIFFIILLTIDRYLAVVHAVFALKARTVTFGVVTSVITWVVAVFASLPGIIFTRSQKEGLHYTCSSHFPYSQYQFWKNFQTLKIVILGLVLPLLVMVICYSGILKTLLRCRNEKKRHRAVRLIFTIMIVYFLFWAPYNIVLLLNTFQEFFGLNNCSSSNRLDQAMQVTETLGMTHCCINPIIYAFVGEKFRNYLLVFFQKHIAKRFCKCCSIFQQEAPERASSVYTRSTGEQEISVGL
Description: as §1, §2

T1 sequence (P61073 whole entry): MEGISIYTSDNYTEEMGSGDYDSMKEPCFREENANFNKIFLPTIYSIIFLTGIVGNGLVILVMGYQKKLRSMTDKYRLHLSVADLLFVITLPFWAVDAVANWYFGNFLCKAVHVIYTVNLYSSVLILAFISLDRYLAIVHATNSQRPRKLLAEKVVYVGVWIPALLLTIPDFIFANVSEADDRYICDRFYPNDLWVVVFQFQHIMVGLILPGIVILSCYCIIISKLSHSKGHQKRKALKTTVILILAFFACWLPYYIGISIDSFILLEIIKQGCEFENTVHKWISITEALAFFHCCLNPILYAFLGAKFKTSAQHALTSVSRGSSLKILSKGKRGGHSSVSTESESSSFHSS

Row | Substance | inhibition of SDF-1α binding to CXCR4 (CXCR4 [1]) | concentration at which significant inhibition of HIV-1 infection was detected (as low as) (HIV-1IIIB) | inhibition of T cell-tropic HIV-1 infection of PBMCs (p24) (HIV-1IIIB) | inhibition of radiolabeled SDF-1α binding to cells expressing CXCR4 (CXCR4 [2]) | inhibition of radiolabeled MIP-1β binding to cells expressing CCR5 (CCR5) | anti-HIV-1 activity of 15D in comparison with 15K (HIV-1IIIB; some experiments, data not shown, virus strain not stated)
1 | IRKAHCNISRAKWND [Peptide 15K] | competitively inhibited chemokine binding | 10 ng/mL | significantly reduced HIV-1 infection | significantly inhibit chemokine binding | significantly inhibit chemokine binding | –
2 | I R K A H C N I S R A D W N D [Peptide 15D] | competitively inhibited chemokine binding | 10 ng/mL | significantly reduced HIV-1 infection | significantly inhibit chemokine binding | significantly inhibit chemokine binding | higher anti-HIV-1 activity
